Data reported in patent US20250011318A1 (ARCUS BIOSCIENCES, INC., priority 2023, published 2025).
pEC50, pIC50: −log10 of the molar value.

Key:
Cbl-b = target: T1, Cbl-b (Homo sapiens, UniProt Q13191); test: Cbl-b probe displacement HTRF binding assay; conditions: 0.4 nM biotinylated Cbl-b, 150 nM BODIPY probe
T1 construct: biotin (biotinylated)
Procedure: The affinity with which compounds of the present disclosure bind to Cbl-b was assessed using probe displacement homologous time resolved fluorescence (HTRF) assays. The assays used a BODIPY™ conjugated probe (Example 54 from WO 2020264398) and biotinylated Cbl-b. The assays were performed in assay buffer consisting of 20 mM Hepes, 150 mM NaCl, 0.01% Triton X-100, 0.5 mM TCEP, 0.01% BSA. On the day of the assay, a 20 point, 1:2 master serial dilution of each compound was prepared in DMSO to span a final concentration range of 10 μM to 0 nM. Two hundred nanoliters of diluted compound was added to each well of a 384-well plate. Fifteen microliters of biotinylated—Cbl-b resuspended in assay buffer were added to each well and the plate incubated for 60 minutes at room temperature prior to addition of 5 μL of BODIPY™ probe in assay buffer. Final assay conditions included 0.4 nM of Cbl-b and 150 nM of BODIPY™ probe. After a further 15 minutes of incubation at room temperature, 5 μl of Streptavidin-Terbium cryptate reagent at 5-fold final concentration was added to each well of the 384-well plate. Binding of a probe to Cbl-b results in an increase of HTRF signal. HTRF signal was measured by Envision plate reader, while competition of a compound of the present disclosure with probe results in a decrease of signal. Percentage maximum activity in each test well was calculated based on DMSO (maximum activity, 0% displacement) and no protein control wells (baseline activity, 100% displacement). Binding affinity was determined from a dose response curve fitted using a standard four parameter fit equation. See Table 3 for data for compounds (Cbl-b Binding (IC50)).

Jurkat cells = test: IL-2 secretion assay in CD3/CD28-activated Jurkat cells (AlphaLISA); format: cell-based, human; conditions: Homo sapiens, CD3/CD28 T Cell Activator, 24 h, IL-2 AlphaLISA
Procedure: Certain compounds were also evaluated in an IL-2 secretion assay. On the day of the assay, a 16 point, 1:2 master serial dilution of each compound was prepared in Opti-MEM to span a final concentration range of 10 μM to 300 pM. Assays were setup in CORNING® tissue culture-treated 384-well microplates containing 60 nL of each dilution. Jurkat cells grown in RPMI-1640 supplemented with 10% FBS, 1% Glutamax, and 1% Pen/Strep were collected, resuspended in Opti-MEM. 50,000 cells/well and added to the compound plates. After a short spin (1200 rpm for 1 min), the plates were incubated at 37° C. for 1 hour. The cells were activated by adding 15 μL of IMUNOCULT™ Human CD3/CD28 T Cell Activator (STEMCELL Technologies) diluted in Opti-MEM. After 24 h of incubation at 37° C., aliquots of culture supernatants were transferred to OptiPlate-384 (PerkinElmer) microplates. The level of IL-2 secretion in the supernatants was then determined using the IL-2 (human) AlphaLISA Detection Kit (PerkinElmer) according to the manufacturer's recommendations. The AlphaLISA signal was measured using an EnVision plate reader (PerkinElmer). EC50 values were determined by fitting the data to a standard 4-parameter logistic equation. See Table 3 for data for select compounds (IL-2 Secretion (EC50)).

T1 sequence (Q13191 whole entry, species assumed): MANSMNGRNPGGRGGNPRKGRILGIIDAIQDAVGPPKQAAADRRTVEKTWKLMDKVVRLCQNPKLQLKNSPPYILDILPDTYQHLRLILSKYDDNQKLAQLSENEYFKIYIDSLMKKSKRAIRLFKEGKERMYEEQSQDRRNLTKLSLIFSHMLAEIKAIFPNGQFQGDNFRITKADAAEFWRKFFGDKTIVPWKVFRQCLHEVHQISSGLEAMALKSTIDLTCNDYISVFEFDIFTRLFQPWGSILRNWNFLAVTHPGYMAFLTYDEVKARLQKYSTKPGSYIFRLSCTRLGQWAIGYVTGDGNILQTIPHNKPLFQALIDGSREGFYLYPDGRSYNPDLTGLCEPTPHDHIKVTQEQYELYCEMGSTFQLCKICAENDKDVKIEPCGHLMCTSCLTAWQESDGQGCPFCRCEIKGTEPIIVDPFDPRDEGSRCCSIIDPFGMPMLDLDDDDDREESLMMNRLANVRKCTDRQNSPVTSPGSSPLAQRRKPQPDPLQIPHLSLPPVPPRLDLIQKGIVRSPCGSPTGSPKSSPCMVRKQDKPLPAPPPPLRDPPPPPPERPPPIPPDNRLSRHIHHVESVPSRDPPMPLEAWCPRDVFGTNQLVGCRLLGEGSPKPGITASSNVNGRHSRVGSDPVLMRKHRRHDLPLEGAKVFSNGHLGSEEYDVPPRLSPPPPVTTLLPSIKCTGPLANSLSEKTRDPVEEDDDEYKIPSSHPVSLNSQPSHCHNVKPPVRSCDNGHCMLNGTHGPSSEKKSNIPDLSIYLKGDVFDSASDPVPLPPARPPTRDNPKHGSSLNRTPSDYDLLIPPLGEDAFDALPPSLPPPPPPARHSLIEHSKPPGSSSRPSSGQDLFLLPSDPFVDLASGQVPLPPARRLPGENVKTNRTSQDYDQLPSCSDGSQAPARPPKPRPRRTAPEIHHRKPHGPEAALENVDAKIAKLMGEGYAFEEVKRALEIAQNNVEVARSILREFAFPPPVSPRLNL

Row | SMILES | pIC50 (Cbl-b) | pEC50 (Jurkat cells)
1 | CC(c1cc2c(C3CC3)cn(-c3cc(-c4ccc(C#N)cc4-c4nccn4C)cc(C4CC4)n3)c(=O)c2[nH]1)N1CCC[C@H](C)C1 (mixture of isomers) [Example 100, 4-[2-(2-{1-[(S)-3-methyl-1-piperidyl]ethyl}-4-cyclopropyl-7-oxo-1,6-dihydro-1,6-diaza-6-indenyl)-6-cyclopropyl-4-pyridyl]-3-(1-methyl-2-imidazolyl)benzonitrile] | > 7.00 | > 7.00
2 | CC(c1cc2c(S(C)(=O)=O)cn(-c3cc(-c4ccc(C#N)cc4-c4nccn4C)cc(C4CC4)n3)c(=O)c2[nH]1)N1CCC[C@H](C)C1 (mixture of isomers) [Example 101, 4-[2-(2-{1-[(S)-3-methyl-1-piperidyl]ethyl}-4-mesyl-7-oxo-1,6-dihydro-1,6-diaza-6-indenyl)-6-cyclopropyl-4-pyridyl]-3-(1-methyl-2-imidazolyl)benzonitrile] | > 7.00 | > 7.00
3 | CC(c1cc2c(S(C)(=O)=O)cn(-c3cc(-c4ccc(C#N)cc4-c4nccn4C)cc(C4CC4)n3)c(=O)c2[nH]1)N1CCO[C@H](C)C1 (mixture of isomers) [Example 102, 4-[2-(2-{1-[(R)-2-methyl-4-morpholinyl]ethyl}-4-mesyl-7-oxo-1,6-dihydro-1,6-diaza-6-indenyl)-6-cyclopropyl-4-pyridyl]-3-(1-methyl-2-imidazolyl)benzonitrile] | > 7.00 | > 7.00
4 | Cn1cnnc1-c1cc(C#N)ccc1-c1cc(C2CC2)nc(-n2cc(C3CC3)c3cc[nH]c3c2=O)c1 [Example 4] | 5.30 to 6.00 | < 5.30
5 | COc1cc(-c2ccc(F)cc2-c2nncn2C)cc(-n2cc(C3CC3)c3cc(CN4CCC[C@H](C)C4)[nH]c3c2=O)n1 [Example 8, 2-{[(S)-3-Methyl-1-piperidyl]methyl}-4-cyclopropyl-6-{4-[4-fluoro-2-(4-methyl-4H-1,2,4-triazol-3-yl)phenyl]-6-methoxy-2-pyridyl}-1,6-dihydro-1,6-diaza-7-indenone] | > 7.00 | > 7.00
6 | CCOc1cc(-c2ccc(F)cc2-c2nncn2C)cc(-n2cc(C3CC3)c3cc(CN4CCC[C@H](C)C4)[nH]c3c2=O)n1 [Example 9, 2-{[(S)-3-Methyl-1-piperidyl]methyl}-4-cyclopropyl-6-{6-ethoxy-4-[4-fluoro-2-(4-methyl-4H-1,2,4-triazol-3-yl)phenyl]-2-pyridyl}-1,6-dihydro-1,6-diaza-7-indenone] | > 7.00 | > 7.00
7 | CCNc1cc(-c2ccc(F)cc2-c2nncn2C)cc(-n2cc(C3CC3)c3cc(CN4CCC[C@H](C)C4)[nH]c3c2=O)n1 [Example 11, 2-{[(S)-3-methyl-1-piperidyl]methyl}-4-cyclopropyl-6-{6-(ethylamino)-4-[4-fluoro-2-(4-methyl-4H-1,2,4-triazol-3-yl)phenyl]-2-pyridyl}-1,6-dihydro-1,6-diaza-7-indenone] | > 7.00 | > 7.00
8 | C[C@H]1CCCN(Cc2cc3c(C4CC4)cn(-c4cc(-c5ccc(F)cc5-c5nncn5C)ccn4)c(=O)c3[nH]2)C1 [Example 12, 2-{[(S)-3-Methyl-1-piperidyl]methyl}-4-cyclopropyl-6-{4-[4-fluoro-2-(4-methyl-4H-1,2,4-triazol-3-yl)phenyl]-2-pyridyl}-1,6-dihydro-1,6-diaza-7-indenone] | > 7.00 | 6.00 to 7.00
9 | C[C@H]1CCCN(Cc2cc3c(C4CC4)cn(-c4cc(-c5ccc(C#N)cc5-c5nccn5C)cc(C(F)(F)F)n4)c(=O)c3[nH]2)C1 [Example 16, 4-[2-(2-{[(S)-3-methyl-1-piperidyl]methyl}-4-cyclopropyl-7-oxo-1,6-dihydro-1,6-diaza-6-indenyl)-6-(trifluoromethyl)-4-pyridyl]-3-(1-methyl-2-imidazolyl)benzonitrile] | > 7.00 | > 7.00
10 | C[C@H]1CCCN(Cc2cc3c(C4CC4)cn(-c4cccc(-c5ccc(F)cc5-c5nccn5C)c4)c(=O)c3[nH]2)C1 [Example 17, 4-cyclopropyl-6-[3-[4-fluoro-2-(1-methylimidazol-2-yl)phenyl]phenyl]-2-[[(3S)-3-methylpiperidin-1-yl]methyl]-1H-pyrrolo[2,3-c]pyridin-7-one] | > 7.00 | 6.00 to 7.00

The next lines start with the values.

Row | pIC50 (Cbl-b) | pEC50 (Jurkat cells) | SMILES
11 | > 7.00 | > 7.00 | C[C@H]1CCCN(Cc2cc3c(C4CC4)cn(-c4cc(-c5ccc(C#N)cc5-c5nncn5C)cc(Cl)n4)c(=O)c3[nH]2)C1 [Example 1, 4-[2-(2-{[(S)-3-methyl-1-piperidyl]methyl}-4-cyclopropyl-7-oxo-1,6-dihydro-1,6-diaza-6-indenyl)-6-chloro-4-pyridyl]-3-(4-methyl-4H-1,2,4-triazol-3-yl)benzonitrile]
12 | > 7.00 | > 7.00 | C[C@H]1CCCN(Cc2cc3c(C4CC4)cn(-c4cc(-c5ccc(C#N)cc5-c5nncn5C)cc(C5CC5)n4)c(=O)c3[nH]2)C1 [Example 2, 4-[2-(2-{[(S)-3-methyl-1-piperidyl]methyl}-4-cyclopropyl-7-oxo-1,6-dihydro-1,6-diaza-6-indenyl)-6-cyclopropyl-4-pyridyl]-3-(4-methyl-4H-1,2,4-triazol-3-yl)benzonitrile]
13 | 6.00 to 7.00 | 5.30 to 6.00 | CNCCN(C)c1cc(-c2ccc(C#N)cc2-c2nncn2C)cc(-n2cc(C3CC3)c3cc(CN4CCC[C@H](C)C4)[nH]c3c2=O)n1 [Example 3, 4-(2-{N-methyl[2-(methylamino)ethyl]amino}-6-(2-{[(S)-3-methyl-1-piperidyl]methyl}-4-cyclopropyl-7-oxo-1,6-dihydro-1,6-diaza-6-indenyl)-4-pyridyl)-3-(4-methyl-4H-1,2,4-triazol-3-yl)benzonitrile]
14 | > 7.00 | > 7.00 | COc1ccc(-c2cc(C3CC3)nc(-n3cc(C4CC4)c4cc(CN5CCC[C@H](C)C5)[nH]c4c3=O)c2)c(-c2nncn2C)c1 [Example 5, 2-{[(S)-3-Methyl-1-piperidyl]methyl}-4-cyclopropyl-6-{6-cyclopropyl-4-[4-methoxy-2-(4-methyl-4H-1,2,4-triazol-3-yl)phenyl]-2-pyridyl}-1,6-dihydro-1,6-diaza-7-indenone]
15 | > 7.00 | > 7.00 | C[C@H]1CCCN(Cc2cc3c(C4CC4)cn(-c4cc(-c5ccc(F)cc5-c5nncn5C)cc(Cl)n4)c(=O)c3[nH]2)C1 [Example 6, 2-{1[(S)-3-Methyl-1-piperidyl]methyl}-6-{6-chloro-4-[4-fluoro-2-(4-methyl-4H-1,2,4-triazol-3-yl)phenyl]-2-pyridyl}-4-cyclopropyl-1,6-dihydro-1,6-diaza-7-indenone]
16 | 6.00 to 7.00 | 5.30 to 6.00 | C[C@H]1CCCN(Cc2cc3c(C4CC4)cn(-c4cc(-c5ccc(F)cc5-c5nncn5C)cc(O)n4)c(=O)c3[nH]2)C1 [Example 7, 2-{[(S)-3-methyl-1-piperidyl]methyl}-4-cyclopropyl-6-{4-[4-fluoro-2-(4-methyl-4H-1,2,4-triazol-3-yl)phenyl]-6-hydroxy-2-pyridyl}-1,6-dihydro-1,6-diaza-7-indenone]
17 | > 7.00 | > 7.00 | [2H]C([2H])([2H])n1ccnc1-c1cc(C#N)ccc1-c1cc(C2CC2)nc(-n2cc(C3CC3)c3cc(CN4CCC[C@H](C)C4)[nH]c3c2=O)c1 [Example 14, 4-[2-(2-{[(S)-3-methyl-1-piperidyl]methyl}-4-cyclopropyl-7-oxo-1,6-dihydro-1,6-diaza-6-indenyl)-6-cyclopropyl-4-pyridyl]-3-{1-[(^2H3)methyl]-2-imidazolyl}benzonitrile]
18 | > 7.00 | > 7.00 | C[C@H]1CCCN(Cc2cc3c(C4CC4)cn(-c4cc(-c5ccc(C#N)cc5-c5nccn5C(F)F)cc(C5CC5)n4)c(=O)c3[nH]2)C1 [Example 15, 4-[2-(2-{1[(S)-3-methyl-1-piperidyl]methyl}-4-cyclopropyl-7-oxo-1,6-dihydro-1,6-diaza-6-indenyl)-6-cyclopropyl-4-pyridyl]-3-[1-(difluoromethyl)-2-imidazolyl]benzonitrile]
